ChEMBL document CHEMBL3872201, “Synthesis and antiproliferative activity of a natural like glycoconjugate polycyclic compound” (2016)
The source made the active and inactive calls. The calls are words filed in the database; no cut-off is given here.

Tests used:
MDA-MB-231 [1] = assay: Cytotoxicity against human MDA-MB-231 cells assessed as reduction in cell number at 5 to 10 uM after 24 to 72 hrs by light microscopic analysis; format: functional, cell-based
[2] = Cell cycle arrest in human MDA-MB-231 cells assessed as cell enlargement at 5 to 10 uM after 8 days by light microscopic analysis; format: functional, cell-based
[3] = Antiproliferative activity against human CCRF-CEM cells after 48 hrs by sulforhodamine B assay; format: functional
[4] = Antiproliferative activity against human HL-60(TB) cells after 48 hrs by sulforhodamine B assay; format: functional; conditions: HL-60, 48 h
[5] = Antiproliferative activity against human K562 cells after 48 hrs by sulforhodamine B assay; format: functional; conditions: K562, 48 h
[6] = Antiproliferative activity against human MOLT4 cells after 48 hrs by sulforhodamine B assay; format: functional; conditions: MOLT-4, 48 h
[7] = Antiproliferative activity against human NCI-H522 cells after 48 hrs by sulforhodamine B assay; format: functional; conditions: NCI-H522, 48 h
[8] = Antiproliferative activity against human COLO205 cells after 48 hrs by sulforhodamine B assay; format: functional; conditions: COLO 205, 48 h
[9] = Antiproliferative activity against human SF268 cells after 48 hrs by sulforhodamine B assay; format: functional; conditions: SF-268, 48 h
[10] = Antiproliferative activity against human SNB19 cells after 48 hrs by sulforhodamine B assay; format: functional; conditions: SNB-19, 48 h
[11] = Antiproliferative activity against human U251 cells after 48 hrs by sulforhodamine B assay; format: functional; conditions: U-251, 48 h
[12] = Antiproliferative activity against human LOXIMVI cells after 48 hrs by sulforhodamine B assay; format: functional; conditions: LOX IMVI
[13] = Antiproliferative activity against human M14 cells after 48 hrs by sulforhodamine B assay; format: functional; conditions: M14, 48 h
[14] = Antiproliferative activity against human SK-MEL-2 cells after 48 hrs by sulforhodamine B assay; format: functional; conditions: SK-MEL-2, 48 h
[15] = Antiproliferative activity against human IGROV1 cells after 48 hrs by sulforhodamine B assay; format: functional; conditions: IGROV-1, 48 h
[16] = Antiproliferative activity against human OVCAR3 cells after 48 hrs by sulforhodamine B assay; format: functional; conditions: OVCAR-3, 48 h
[17] = Antiproliferative activity against human OVCAR4 cells after 48 hrs by sulforhodamine B assay; format: functional; conditions: OVCAR-4, 48 h
[18] = Antiproliferative activity against human OVCAR8 cells after 48 hrs by sulforhodamine B assay; format: functional; conditions: OVCAR-8, 48 h
[19] = Antiproliferative activity against human NCI-ADR-RES cells after 48 hrs by sulforhodamine B assay; format: functional
[20] = Antiproliferative activity against human SKOV3 cells after 48 hrs by sulforhodamine B assay; format: functional; conditions: SK-OV-3, 48 h
[21] = Antiproliferative activity against human A498 cells after 48 hrs by sulforhodamine B assay; format: functional; conditions: A498, 48 h
[22] = Antiproliferative activity against human Caki1 cells after 48 hrs by sulforhodamine B assay; format: functional; conditions: CAKI-1, 48 h
MDA-MB-231 [23] = assay: Cytotoxicity against human MDA-MB-231 cells assessed as inhibition of cell viability after 48 hrs by MTT assay relative to control; format: functional, cell-based
[24] = Cytotoxicity against human MDA-MB-231 cells assessed as inhibition of cell viability at 10 uM after 24 hrs by MTT assay relative to control; format: functional; conditions: MDA-MB-231, 24 h
[25] = Cell cycle arrest in human MDA-MB-231 cells assessed as accumulation at subG0/G1 phase at 5 uM after 24 hrs by propidium iodide staining based flow cytometric analysis (reference value: 7.6%); format: functional
[26] = Cell cycle arrest in human MDA-MB-231 cells assessed as accumulation at G2/M phase at 5 uM after 48 hrs by propidium iodide staining based flow cytometric analysis (reference value: 19.5%); format: functional
[27] = Cell cycle arrest in human MDA-MB-231 cells assessed as accumulation at subG0/G1 phase at 10 uM after 48 hrs by propidium iodide staining based flow cytometric analysis (reference value: 8.8%); format: functional
[28] = Cell cycle arrest in human MDA-MB-231 cells assessed as accumulation at G2/M phase at 5 uM after 72 hrs by propidium iodide staining based flow cytometric analysis (reference value: 19.7%); format: functional
[29] = Cell cycle arrest in human MDA-MB-231 cells assessed as accumulation at G2/M phase at 10 uM after 72 hrs by propidium iodide staining based flow cytometric analysis (reference value: 19.7%); format: functional
[30] = Cell cycle arrest in human MDA-MB-231 cells assessed as accumulation at G2/M phase after 96 to 120 hrs by propidium iodide staining based flow cytometric analysis; format: functional
MDA-MB-231 [31] = assay: Effect on cell cycle regulatory protein in human MDA-MB-231 cells assessed as cyclin B1 level at 5 uM after 24 hrs by Western blot analysis relative to control; format: functional
MDA-MB-231 [32] = assay: Effect on cell cycle regulatory protein in human MDA-MB-231 cells assessed as cyclin B1 level at 5 uM after 48 hrs by Western blot analysis relative to control; format: functional
MDA-MB-231 [33] = assay: Effect on cell cycle regulatory protein in human MDA-MB-231 cells assessed as cyclin B1 level at 10 uM after 48 hrs by Western blot analysis relative to control; format: functional
MDA-MB-231 [34] = assay: Effect on cell cycle regulatory protein in human MDA-MB-231 cells assessed as cdc2 level at 5 uM after 48 hrs by Western blot analysis relative to control; format: functional
MDA-MB-231 [35] = assay: Effect on cell cycle regulatory protein in human MDA-MB-231 cells assessed as p21 level at 5 uM after 48 hrs by Western blot analysis relative to control; format: functional
[36] = read-out: LC50 (the source's name)

Compound: C=C1c2c(C)nn(-c3ccc(C#CCO[C@@H]4O[C@H](CO)[C@@H](O)[C@H](O)[C@H]4O)cc3)c2N(C)C23CC1C1(C)c4c(C)nn(-c5ccc(C#CCO[C@@H]6O[C@H](CO)[C@@H](O)[C@H](O)[C@H]6O)cc5)c4N(C)C(C)(CC12)C3 (stereo not given in full)
- Activity (MDA-MB-231 [1]): Active
- Activity [2]: Active
- GI50 [3]: 1040 nM
- TGI [3]: 5.03 µM
- CC50 [3, 36]: > 100 µM
- GI50 [4]: 2070 nM
- TGI [4]: 4.43 µM
- CC50 [4, 36]: 9.49 µM
- GI50 [5]: 1890 nM
- TGI [5]: 6.75 µM
- CC50 [5, 36]: > 100 µM
- GI50 [6]: 1280 nM
- TGI [6]: 3.88 µM
- CC50 [6, 36]: 100 µM
- GI50 [7]: 1670 nM
- TGI [7]: 3.26 µM
- CC50 [7, 36]: 6.37 µM
- GI50 [8]: 1470 nM
- TGI [8]: 2880 nM
- CC50 [8, 36]: 5.63 µM
- GI50 [9]: 1750 nM
- TGI [9]: 3.57 µM
- CC50 [9, 36]: 7.27 µM
- GI50 [10]: 1660 nM
- TGI [10]: 3.95 µM
- CC50 [10, 36]: 9.37 µM
- GI50 [11]: 1190 nM
- TGI [11]: 2590 nM
- CC50 [11, 36]: 5.61 µM
- GI50 [12]: 1370 nM
- TGI [12]: 2790 nM
- CC50 [12, 36]: 5.69 µM
- GI50 [13]: 1670 nM
- TGI [13]: 3.44 µM
- CC50 [13, 36]: 7.06 µM
- GI50 [14]: 1760 nM
- TGI [14]: 3.39 µM
- CC50 [14, 36]: 6.55 µM
- GI50 [15]: 1560 nM
- TGI [15]: 3.95 µM
- CC50 [15, 36]: 10.1 µM
- GI50 [16]: 1520 nM
- TGI [16]: 3.8 µM
- CC50 [16, 36]: 9.49 µM
- GI50 [17]: 1680 nM
- TGI [17]: 9.94 µM
- CC50 [17, 36]: 31.8 µM
- GI50 [18]: 1000 nM
- TGI [18]: 3.84 µM
- CC50 [18, 36]: 55.1 µM
- GI50 [19]: 5.43 µM
- TGI [19]: 47 µM
- CC50 [19, 36]: 100 µM
- GI50 [20]: 1720 nM
- TGI [20]: 3.11 µM
- CC50 [20, 36]: 5.61 µM
- GI50 [21]: 1500 nM
- TGI [21]: 3.18 µM
- CC50 [21, 36]: 6.72 µM
- GI50 [22]: 2810 nM
- TGI [22]: 11.6 µM
- CC50 [22, 36]: 49 µM
- inhibition (MDA-MB-231 [23]): Dose-dependent effect
- inhibition at 10 µM [24]: 80%
- Activity [25]: 7.1%
- Activity [26]: 30.6%
- Activity [27]: 4.6%
- Activity [28]: 18.7%
- Activity [29]: 31.1%
- Activity [30]: Active
- fold change (FC) (MDA-MB-231 [31]): 0.9
- fold change (FC) (MDA-MB-231 [32]): 1
- fold change (FC) (MDA-MB-231 [33]): 0.5
- fold change (FC) (MDA-MB-231 [34]): 1.5
- fold change (FC) (MDA-MB-231 [35]): 0.2
